Experiment [1] deals with orexin-1 (Homo sapiens (Human), UniProt O43613). Put plainly: Intracellular calcium measurement (FLIPR), CHO cells expressing human orexin-1 receptor, 3 nM orexin-A. The class given is cell-based. The note with it: CHO cells expressing human orexin-1 receptor, FLIPR, 3 nM orexin-A; geometric mean if determined several times; read-out: IC50 OX1. The protocol:
(§1) In Vitro Assay: Intracellular Calcium Measurements:
(§2) Chinese hamster ovary (CHO) cells expressing the human orexin-1 receptor and the human orexin-2 receptor, respectively, are grown in culture medium (Ham F-12 with L-Glutamine) containing 300 μg/mL G418, 100 U/mL penicillin, 100 μg/mL streptomycin and 10% heat inactivated fetal calf serum (FCS). The cells are seeded at 20,000 cells/well into 384-well black clear bottom sterile plates (Greiner). The seeded plates are incubated overnight at 37° C. in 5% CO2.
(§3) Human orexin-A as an agonist is prepared as 1 mM stock solution in MeOH: water (1:1), diluted in HBSS containing 0.1% bovine serum albumin (BSA), NaHCO3: 0.375 g/L and 20 mM HEPES for use in the assay at a final concentration of 3 nM.
(§4) Antagonists are prepared as 10 mM stock solution in DMSO, then diluted in 384-well plates using DMSO followed by a transfer of the dilutions into in HBSS containing 0.1% bovine serum albumin (BSA), NaHCO3: 0.375 g/L and 20 mM HEPES. On the day of the assay, 50 μL of staining buffer (HBSS containing 1% FCS, 20 mM HEPES, NaHCO3: 0.375 g/L, 5 mM probenecid (Sigma) and 3 μM of the fluorescent calcium indicator fluo-4 AM (1 mM stock solution in DMSO, containing 10% pluronic) is added to each well. The 384-well cell-plates are incubated for 50 min at 37° C. in 5% CO2 followed by equilibration at rt for 30 min before measurement.
(§5) Within the Fluorescent Imaging Plate Reader (FLIPR Tetra, Molecular Devices), antagonists are added to the plate in a volume of 10 μL/well, incubated for 120 min and finally 10 μL/well of agonist is added. Fluorescence is measured for each well at 1 second intervals, and the height of each fluorescence peak is compared to the height of the fluorescence peak induced by 3 nM orexin-A with vehicle in place of antagonist. […] Optimized conditions were achieved by adjustment of pipetting speed and cell splitting regime. The calculated IC50 values may fluctuate depending on the daily cellular assay performance. Fluctuations of this kind are known to those skilled in the art.

The target in experiment [2] is human orexin-2 receptor (Homo sapiens (Human), UniProt O43614). The experiment in a line: Intracellular calcium measurement (FLIPR), CHO cells expressing human orexin-2 receptor, 3 nM orexin-A. The experiment is classed as cell-based. The note with it: CHO cells expressing human orexin-2 receptor, FLIPR, 3 nM orexin-A; geometric mean if determined several times; read-out: IC50 OX2. Here is the method: as §1, §2, §3, §4, §5
Chain of human orexin-2 receptor (O43614 whole entry): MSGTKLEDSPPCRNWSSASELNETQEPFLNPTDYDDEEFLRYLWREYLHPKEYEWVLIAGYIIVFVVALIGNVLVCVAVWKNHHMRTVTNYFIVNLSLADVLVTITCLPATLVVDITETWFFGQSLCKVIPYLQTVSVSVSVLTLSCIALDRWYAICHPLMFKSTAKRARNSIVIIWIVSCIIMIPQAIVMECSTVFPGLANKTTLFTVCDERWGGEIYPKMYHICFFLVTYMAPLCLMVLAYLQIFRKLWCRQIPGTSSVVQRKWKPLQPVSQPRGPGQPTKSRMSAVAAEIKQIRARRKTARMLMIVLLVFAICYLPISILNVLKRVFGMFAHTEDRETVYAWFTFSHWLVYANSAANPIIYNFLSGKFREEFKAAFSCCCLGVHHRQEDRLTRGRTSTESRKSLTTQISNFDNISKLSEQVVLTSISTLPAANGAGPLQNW
(In general: Calcium assays in cells follow changes in intracellular calcium, usually with a dye or a luminescent sensor.)

Broadly, the IC50 is the concentration at which inhibition is half-maximal.

Chain of orexin-1 (O43613 whole entry): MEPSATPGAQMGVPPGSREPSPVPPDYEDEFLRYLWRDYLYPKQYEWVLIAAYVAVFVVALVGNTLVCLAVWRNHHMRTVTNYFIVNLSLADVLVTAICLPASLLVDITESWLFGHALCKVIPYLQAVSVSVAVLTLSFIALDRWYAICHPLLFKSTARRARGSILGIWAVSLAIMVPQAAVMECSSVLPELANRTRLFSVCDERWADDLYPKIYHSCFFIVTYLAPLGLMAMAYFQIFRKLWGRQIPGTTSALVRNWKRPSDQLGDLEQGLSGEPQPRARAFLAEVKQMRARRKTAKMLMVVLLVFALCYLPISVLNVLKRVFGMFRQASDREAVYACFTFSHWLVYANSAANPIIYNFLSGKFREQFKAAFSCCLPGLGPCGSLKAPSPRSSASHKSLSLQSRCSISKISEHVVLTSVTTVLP

Turning to `Cc1ccc(-n2nccn2)c(C(=O)N2CCC[C@H]2c2nc(-c3ccccc3)no2)c1` [Example 1, (5-Methyl-2-[1,2,3]triazol-2-yl-phenyl)-[(S)-2-(3-phenyl-[1,2,4]oxadiazol-5-yl)-pyrrolidin-1-yl]-methanone], the IC50 was 373 nM in experiment [1] and 40 nM in experiment [2].

Consider `CC(=O)n1cc(-c2noc([C@@H]3CCCN3C(=O)c3cc(C)ccc3-n3nccn3)n2)c2ccccc21` [Example 85, 1-(3-{5-[(S)-1-(5-Methyl-2-[1,2,3]triazol-2-yl-benzoyl)-pyrrolidin-2-yl]-[1,2,4]oxadiazol-3-yl}-indol-1-yl)-ethanone], for which the IC50 in experiment [1] was 28 nM; in experiment [2], 23 nM. Taken in the same sequence, the figures for `Cc1ccc(-n2nccn2)c(C(=O)N2CCC[C@H]2c2nc(-c3cccnc3OC(F)F)no2)c1` [Example 86, {(S)-2-[3-(2-Difluoromethoxy-pyridin-3-yl)-[1,2,4]oxadiazol-5-yl]-pyrrolidin-1-yl}-(5-methyl-2-[1,2,3]triazol-2-yl-phenyl)-methanone] were 103 nM and 40 nM. The corresponding values for `Cc1ccc(-n2nccn2)c(C(=O)N2CCC[C@H]2c2nc(-c3ccccc3CCO)no2)c1` [Example 87, ((S)-2-{3-[2-(2-Hydroxy-ethyl)-phenyl]-[1,2,4]oxadiazol-5-yl}-pyrrolidin-1-yl)-(5-methyl-2-[1,2,3]triazol-2-yl-phenyl)-methanone] are 439 nM and 70 nM. On to `Cc1ccc(-n2nccn2)c(C(=O)N2CCC[C@H]2c2noc(-c3ccccc3)n2)c1` [Example 302, (5-Methyl-2-[1,2,3]triazol-2-yl-phenyl)-[(S)-2-(5-phenyl-[1,2,4]oxadiazol-3-yl)-pyrrolidin-1-yl]-methanone], for which the IC50 is 258 nM in experiment [1] and 207 nM in experiment [2].

Regarding `Cc1ccc(-n2nccn2)c(C(=O)N2CCC[C@H]2c2noc(-c3ccccc3OC(F)(F)F)n2)c1` [Example 303, (5-Methyl-2-[1,2,3]triazol-2-yl-phenyl)-{(S)-2-[5-(2-trifluoromethoxy-phenyl)-[1,2,4]oxadiazol-3-yl]-pyrrolidin-1-yl}-methanone], the values for the IC50 in experiment [1] and in experiment [2] were 13 nM and 4 nM, respectively. Regarding `Cc1ccc(-n2nccn2)c(C(=O)N2CCC[C@H]2c2noc(-c3cccc(Cl)c3C)n2)c1` [Example 318, {(S)-2-[5-(3-Chloro-2-methyl-phenyl)-[1,2,4]oxadiazol-3-yl]-pyrrolidin-1-yl}-(5-methyl-2-[1,2,3]triazol-2-yl-phenyl)-methanone], the results for the half-maximal inhibitory concentration (IC50) in experiment [1] and in experiment [2] were 42 nM and 7 nM, respectively. The corresponding values for `Cc1ccc(-n2nccn2)c(C(=O)N2CCC[C@H]2c2cc(-c3ccccc3)no2)c1` [Example 420, (5-Methyl-2-[1,2,3]triazol-2-yl-phenyl)-[(S)-2-(3-phenyl-isoxazol-5-yl)-pyrrolidin-1-yl]-methanone] are 1060 nM and 133 nM. With `Cc1cccc(-c2nnc([C@@H]3CCCN3C(=O)c3cc(C)ccc3-n3nccn3)o2)c1` [Example 438, (5-Methyl-2-[1,2,3]triazol-2-yl-phenyl)-[(S)-2-(5-m-tolyl-[1,3,4]oxadiazol-2-yl)-pyrrolidin-1-yl]-methanone], the values for the IC50 in experiment [1] and in experiment [2] were 1490 nM and 359 nM, respectively.

As to `COc1c(F)cccc1-c1nnc([C@@H]2CCCN2C(=O)c2cc(C)ccc2-n2nccn2)o1` [Example 448, {(S)-2-[5-(3-Fluoro-2-methoxy-phenyl)-[1,3,4]oxadiazol-2-yl]-pyrrolidin-1-yl}-(5-methyl-2-[1,2,3]triazol-2-yl-phenyl)-methanone], the values for the IC50 in experiment [1] and in experiment [2] were 762 nM and 236 nM, respectively. As to `CCOc1c(F)cccc1-c1nnc([C@@H]2CCCN2C(=O)c2cc(C)ccc2-n2nccn2)o1` [Example 449, {(S)-2-[5-(2-Ethoxy-3-fluoro-phenyl)-[1,3,4]oxadiazol-2-yl]-pyrrolidin-1-yl}-(5-methyl-2-[1,2,3]triazol-2-yl-phenyl)-methanone], the IC50 was determined as 280 nM in experiment [1] and 236 nM in experiment [2].

Consider `CCOc1ncccc1-c1nnc([C@@H]2CCCN2C(=O)c2cc(C)ccc2-n2nccn2)o1` [Example 450, {(S)-2-[5-(2-Ethoxy-pyridin-3-yl)-[1,3,4]oxadiazol-2-yl]-pyrrolidin-1-yl}-(5-methyl-2-[1,2,3]triazol-2-yl-phenyl)-methanone], for which the IC50 is 182 nM in experiment [1] and 95 nM in experiment [2]. Turning to `Cc1cc(C)cc(-c2nnc([C@@H]3CCCN3C(=O)c3cc(C)ccc3-n3nccn3)o2)c1` [Example 451, {(S)-2-[5-(3,5-Dimethyl-phenyl)-[1,3,4]oxadiazol-2-yl]-pyrrolidin-1-yl}-(5-methyl-2-[1,2,3]triazol-2-yl-phenyl)-methanone], the values for the IC50 in experiment [1] and in experiment [2] were 535 nM and 326 nM, respectively. The corresponding values for `CCc1ccccc1-c1nnc([C@@H]2CCCN2C(=O)c2cc(C)ccc2-n2nccn2)o1` [Example 452, {(S)-2-[5-(2-Ethyl-phenyl)-[1,3,4]oxadiazol-2-yl]-pyrrolidin-1-yl}-(5-methyl-2-[1,2,3]triazol-2-yl-phenyl)-methanone] are 249 nM and 211 nM. For `Cc1ccc(-n2nccn2)c(C(=O)N2CCC[C@H]2c2nnc(-c3cccc(F)c3C)o2)c1` [Example 453, {(S)-2-[5-(3-Fluoro-2-methyl-phenyl)-[1,3,4]oxadiazol-2-yl]-pyrrolidin-1-yl}-(5-methyl-2-[1,2,3]triazol-2-yl-phenyl)-methanone], the results for the IC50 in experiment [1] and in experiment [2] were 398 nM and 80 nM, respectively. Taken in the same sequence, the figures for `CCOc1ccccc1-c1nnc([C@@H]2CCCN2C(=O)c2cc(C)ccc2-n2nccn2)o1` [Example 454, {(S)-2-[5-(2-Ethoxy-phenyl)-[1,3,4]oxadiazol-2-yl]-pyrrolidin-1-yl}-(5-methyl-2-[1,2,3]triazol-2-yl-phenyl)-methanone] were 1140 nM and 375 nM.

In the case of `Cc1ccc(-n2nccn2)c(C(=O)N2CCC[C@H]2c2nnc(-c3cccc(Cl)c3)o2)c1` [Example 455, {(S)-2-[5-(3-Chloro-phenyl)-[1,3,4]oxadiazol-2-yl]-pyrrolidin-1-yl}-(5-methyl-2-[1,2,3]triazol-2-yl-phenyl)-methanone], the IC50 in experiment [1] stood at 835 nM; in experiment [2] it was 1690 nM. Taken in the same sequence, the figures for `COc1cccc(-c2nnc([C@@H]3CCCN3C(=O)c3cc(C)ccc3-n3nccn3)o2)c1` [Example 456, {(S)-2-[5-(3-Methoxy-phenyl)-[1,3,4]oxadiazol-2-yl]-pyrrolidin-1-yl}-(5-methyl-2-[1,2,3]triazol-2-yl-phenyl)-methanone] were 1740 nM and 536 nM. With `COc1ccc(-c2nnc([C@@H]3CCCN3C(=O)c3cc(C)ccc3-n3nccn3)o2)cc1` [Example 457, {(S)-2-[5-(4-Methoxy-phenyl)-[1,3,4]oxadiazol-2-yl]-pyrrolidin-1-yl}-(5-methyl-2-[1,2,3]triazol-2-yl-phenyl)-methanone], the IC50 in experiment [1] is 17000 nM; in experiment [2], 3440 nM.

As for `CCOc1c(F)cccc1-c1nc([C@@H]2CCCN2C(=O)c2cc(C)c(C)cc2-n2nccn2)no1` [compound 324, (4,5-Dimethyl-2-[1,2,3]triazol-2-yl-phenyl)-{(S)-2-[5-(2-ethoxy-3-fluoro-phenyl)-[1,2,4]oxadiazol-3-yl]-pyrrolidin-1-yl}-methanone], the IC50 in experiment [2] was determined as 1 nM. Turning to `COc1c(F)cccc1-c1nc([C@@H]2CCCN2C(=O)c2cc(C)c(C)cc2-n2nccn2)no1` [compound 340, (4,5-Dimethyl-2-[1,2,3]triazol-2-yl-phenyl)-{(S)-2-[5-(3-fluoro-2-methoxy-phenyl)-[1,2,4]oxadiazol-3-yl]-pyrrolidin-1-yl}-methanone], the concentration for half-maximal inhibition (IC50) in experiment [2] was determined as 0.4 nM. On the same count and under the same terms, the value for `CCOc1ncccc1-c1nc([C@@H]2CCCN2C(=O)c2cc(Cl)c(C)cc2-n2nccn2)no1` [compound 380] was 1 nM. Consider `Cc1ccc(C(=O)N2CCC[C@H]2c2cnc(-c3ccccc3)[nH]2)c(-n2nccn2)c1` [compound 520, (4-Methyl-2-[1,2,3]triazol-2-yl-phenyl)-[(S)-2-(2-phenyl-3H-imidazol-4-yl)-pyrrolidin-1-yl]-methanone], for which, in experiment [1], the IC50 came to 650 nM.

Regarding “{(S)-2-[3-(3-Chloro-2-methyl-phenyl)-[1,2,4]oxadiazol-5-yl]-pyrrolidin-1-yl}-[3-(2-chloro-phenyl)-5-methyl-isoxazol-4-yl]-methanone [Reference compound 7, reference compound]”, the 50% inhibitory concentration (IC50) in experiment [2] amounted to 37 nM.

Source of the values: patent US9493446B2, “Orexin receptor antagonists which are [ortho bi-(hetero-)aryl]-[2-(meta bi-(hetero-)aryl)-pyrrolidin-1-yl]-methanone derivatives” (Actelion Pharmaceuticals Ltd, priority 2012, dated 2016).
